Laboratory results as given in PMC3914206.

How the values were obtained:
Type in all cases: binding
Conditions in all cases: Compound Concentration 10 µM
panel of 442 kinases [1] = molecular target: T1, panel of 442 kinases (Homo sapiens, UniProt O15530)
T1 construct: purchased KINOMEscan
T1 sequence (O15530 1-556): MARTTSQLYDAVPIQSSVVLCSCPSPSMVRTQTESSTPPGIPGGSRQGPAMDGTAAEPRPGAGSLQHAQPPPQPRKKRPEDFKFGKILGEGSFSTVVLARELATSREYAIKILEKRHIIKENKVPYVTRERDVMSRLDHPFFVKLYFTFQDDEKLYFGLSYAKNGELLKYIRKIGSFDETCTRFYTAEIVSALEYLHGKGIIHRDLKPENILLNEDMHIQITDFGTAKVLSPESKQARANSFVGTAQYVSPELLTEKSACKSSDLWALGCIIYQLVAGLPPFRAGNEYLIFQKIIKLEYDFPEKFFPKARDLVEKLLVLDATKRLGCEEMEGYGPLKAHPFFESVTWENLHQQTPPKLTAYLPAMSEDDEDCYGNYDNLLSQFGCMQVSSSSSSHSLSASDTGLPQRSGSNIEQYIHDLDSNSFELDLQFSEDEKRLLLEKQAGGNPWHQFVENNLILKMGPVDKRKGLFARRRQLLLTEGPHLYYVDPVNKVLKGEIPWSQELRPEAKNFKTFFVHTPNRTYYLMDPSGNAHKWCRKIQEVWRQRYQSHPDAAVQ
From the text: (§1) We assessed the selectivity of members of this scaffold using the KINOMEscan methodology across a near comprehensive panel of 442 kinases [[18,27]].

panel of 442 kinases [2] = molecular target: T2, panel of 442 kinases (Homo sapiens, UniProt P22607)
T2 construct: purchased KINOMEscan
T2 sequence (P22607 23-806): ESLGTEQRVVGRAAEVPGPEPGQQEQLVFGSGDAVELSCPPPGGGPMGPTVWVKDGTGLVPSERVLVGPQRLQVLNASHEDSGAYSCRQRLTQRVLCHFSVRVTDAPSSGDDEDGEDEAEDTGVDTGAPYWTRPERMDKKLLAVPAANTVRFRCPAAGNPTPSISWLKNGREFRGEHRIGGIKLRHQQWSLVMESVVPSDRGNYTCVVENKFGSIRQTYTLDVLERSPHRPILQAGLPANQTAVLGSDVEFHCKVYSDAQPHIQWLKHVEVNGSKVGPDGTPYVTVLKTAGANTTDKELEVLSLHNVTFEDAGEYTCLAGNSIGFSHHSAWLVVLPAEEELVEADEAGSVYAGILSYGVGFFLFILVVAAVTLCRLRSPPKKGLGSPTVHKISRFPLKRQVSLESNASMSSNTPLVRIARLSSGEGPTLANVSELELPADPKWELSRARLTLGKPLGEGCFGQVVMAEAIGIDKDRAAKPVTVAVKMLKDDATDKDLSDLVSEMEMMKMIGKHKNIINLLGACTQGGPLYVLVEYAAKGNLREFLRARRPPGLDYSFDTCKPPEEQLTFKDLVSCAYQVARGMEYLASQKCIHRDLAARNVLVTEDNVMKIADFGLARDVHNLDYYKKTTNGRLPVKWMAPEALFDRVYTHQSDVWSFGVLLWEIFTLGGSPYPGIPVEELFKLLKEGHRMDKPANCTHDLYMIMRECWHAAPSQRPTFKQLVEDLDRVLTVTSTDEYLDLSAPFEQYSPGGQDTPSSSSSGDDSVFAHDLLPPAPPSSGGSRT
From the text: as §1

panel of 442 kinases [3] = molecular target: T3, panel of 442 kinases (Homo sapiens, UniProt P53667)
T3 construct: purchased KINOMEscan
T3 sequence (P53667 whole entry): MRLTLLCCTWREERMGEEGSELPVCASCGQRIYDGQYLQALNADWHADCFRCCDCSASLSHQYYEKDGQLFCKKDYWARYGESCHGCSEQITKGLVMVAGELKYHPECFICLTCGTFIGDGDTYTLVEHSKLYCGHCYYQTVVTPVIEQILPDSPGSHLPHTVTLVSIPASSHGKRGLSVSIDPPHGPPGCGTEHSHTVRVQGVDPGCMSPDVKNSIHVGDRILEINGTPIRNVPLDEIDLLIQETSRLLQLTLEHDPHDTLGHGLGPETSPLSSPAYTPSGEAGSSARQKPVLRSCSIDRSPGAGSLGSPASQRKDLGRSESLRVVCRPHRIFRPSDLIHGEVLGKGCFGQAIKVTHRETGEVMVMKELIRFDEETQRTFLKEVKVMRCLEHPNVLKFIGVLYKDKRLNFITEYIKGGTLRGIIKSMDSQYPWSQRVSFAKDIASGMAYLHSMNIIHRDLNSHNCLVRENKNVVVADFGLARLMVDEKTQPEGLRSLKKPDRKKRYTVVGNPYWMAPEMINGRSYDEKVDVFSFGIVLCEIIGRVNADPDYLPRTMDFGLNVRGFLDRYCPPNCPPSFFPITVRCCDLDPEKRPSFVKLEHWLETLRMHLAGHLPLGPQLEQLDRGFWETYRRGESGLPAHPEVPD
From the text: as §1

Row | Compound | KINOMEscan: PDPK1 (panel of 442 kinases [1]) | KINOMEscan: FGFR3 (panel of 442 kinases [2]) | KINOMEscan: LIMK1 (panel of 442 kinases [3])
1 | COc1cc(C(=O)N2CCC(N3CCN(C)CC3)CC2)ccc1Nc1ncc2c(n1)N(C)c1ccccc1C(=O)N2C [15 (LRRK2-IN-1)] | 100 | 80 | 95
2 | COc1cc(C(=O)N2CCC(N3CCN(C)CC3)CC2)ccc1Nc1ncc2c(n1)N1CCc3cccc(c31)C(=O)N2C [Compound 24] | – | 80 | –
3 | COc1cc(C(=O)N2CCC(N3CCN(C)CC3)CC2)ccc1Nc1ncc2c(n1)N(C1CCCC1)c1ccccc1C(=O)N2C [Compound 25, 11-cyclopentyl-2-((2-methoxy-4-(4-(4-methylpiperazin-1-yl)piperidine-1-carbonyl)phenyl)amino)-5-methyl-5H-benzo[e]pyrimido[5,4-b][1,4]diazepin-6(11H)-one] | 98 | 88 | 93
4 | CCOc1cc(C(=O)N2CCC(N3CCN(C)CC3)CC2)ccc1Nc1ncc2c(n1)N(C1CCCC1)c1ccccc1C(=O)N2C [Compound 26] | 99 | 100 | 100
